Patent publication US20260049084A1, “ENPP1 MODULATORS AND PRODUCTS AND USES THEREOF” (Gossamer Bio Services, Inc., priority 2022, published 2026)

Columns and labels:
[1] = target: Recombinant human ENPP1 protein (Homo sapiens (Human), UniProt P22413); experiment: ENPP1 cGAMP Biochemical Assay; settings: 0.5 nM ENPP1, 1000 nM 2′3′-cGAMP substrate, TR-FRET
Experimental: ENPP1 cGAMP Biochemical Assay
Compounds were added to 384 well Proxiplate (PerkinElmer, Waltham MA) at 100 nl/well from DMSO stocks using Echo (Labcyte, San Jose CA). Recombinant human ENPP1 protein (R&D Systems, Minneapolis MN) was prepared in assay buffer (50 mM Tris pH7.5, 1 mM TCEP pH7.0, 2 mM MgCl2 and 0.005% Tween20) and added at 10 μl/well. The plate was sealed, centrifuged at 1000 rpm for 1 minute and incubated at room temperature for 30 minutes before 5 μl substrate 2′3′-cGAMP (R&D Systems, Minneapolis MN) in assay buffer was added to each well to a final concentration of 0.5 nM ENPP1 and 1000 nM 2′3′-cGAMP. The plate was sealed and centrifuged at 1000 rpm for 1 minute again. After incubation at 25° C. for 60 minutes, Terbium labelled AMP/GMP antibody and AMP/GMP HiLyte647 Tracer (BellBrook Labs, Fitchburg WI) in detection buffer (50 mM Tris pH7.5, 20 mM EDTA and 0.1% Prionex) were added to the reaction mixture to a final concentration of 2 nM (5 μl/well). The assay plate was incubated at room temperature for 120 minutes. TR-FRET signal was detected using Envision (PerkinElmer, Waltham MA).

[2] = target: Recombinant human ENPP3 protein (Homo sapiens (Human), UniProt O14638); experiment: ENPP3 cGAMP Biochemical Assay; settings: 70.5 nM ENPP3, 120 μM 2′3′-cGAMP substrate, TR-FRET
Experimental: ENPP3 cGAMP Biochemical Assay
Compounds were added to 384 well Proxiplate (PerkinElmer, Waltham MA) at 100 nl/well from DMSO stocks using Echo (Labcyte, San Jose CA). Recombinant human ENPP3 protein (Acro Biosystems, Newwark DE) was prepared in assay buffer (50 mM Tris pH7.5, 1 mM TCEP pH7.0, 2 mM MgCl2, 2 mM CaCl2), 2 mM ZnCl2 and 0.005% Tween20) and added at 2 μl/well. The plate was sealed, centrifuged at 1000 rpm for 1 minute and incubated at room temperature for 30 minutes before 2 μl substrate 2′3′-cGAMP (R&D Systems, Minneapolis MN) in assay buffer was added to each well to a final concentration of 70.5 nM ENPP3 and 120 μM 2′3′-cGAMP. The plate was sealed and centrifuged at 1000 rpm for 1 minute again. After incubation at 25° C. for 60 minutes, Terbium labelled AMP/GMP antibody and AMP/GMP HiLyte647 Tracer (BellBrook Labs, Fitchburg WI) in detection buffer (50 mM Tris pH7.5, 20 mM EDTA and 0.1% Prionex) were added to the reaction mixture to a final concentration of 475 nM and 3 nM respectively. The assay plate was incubated at room temperature for 120 minutes. TR-FRET signal was detected using Envision (PerkinElmer, Waltham MA).

Recombinant human ENPP3 protein, sequence (O14638 whole entry): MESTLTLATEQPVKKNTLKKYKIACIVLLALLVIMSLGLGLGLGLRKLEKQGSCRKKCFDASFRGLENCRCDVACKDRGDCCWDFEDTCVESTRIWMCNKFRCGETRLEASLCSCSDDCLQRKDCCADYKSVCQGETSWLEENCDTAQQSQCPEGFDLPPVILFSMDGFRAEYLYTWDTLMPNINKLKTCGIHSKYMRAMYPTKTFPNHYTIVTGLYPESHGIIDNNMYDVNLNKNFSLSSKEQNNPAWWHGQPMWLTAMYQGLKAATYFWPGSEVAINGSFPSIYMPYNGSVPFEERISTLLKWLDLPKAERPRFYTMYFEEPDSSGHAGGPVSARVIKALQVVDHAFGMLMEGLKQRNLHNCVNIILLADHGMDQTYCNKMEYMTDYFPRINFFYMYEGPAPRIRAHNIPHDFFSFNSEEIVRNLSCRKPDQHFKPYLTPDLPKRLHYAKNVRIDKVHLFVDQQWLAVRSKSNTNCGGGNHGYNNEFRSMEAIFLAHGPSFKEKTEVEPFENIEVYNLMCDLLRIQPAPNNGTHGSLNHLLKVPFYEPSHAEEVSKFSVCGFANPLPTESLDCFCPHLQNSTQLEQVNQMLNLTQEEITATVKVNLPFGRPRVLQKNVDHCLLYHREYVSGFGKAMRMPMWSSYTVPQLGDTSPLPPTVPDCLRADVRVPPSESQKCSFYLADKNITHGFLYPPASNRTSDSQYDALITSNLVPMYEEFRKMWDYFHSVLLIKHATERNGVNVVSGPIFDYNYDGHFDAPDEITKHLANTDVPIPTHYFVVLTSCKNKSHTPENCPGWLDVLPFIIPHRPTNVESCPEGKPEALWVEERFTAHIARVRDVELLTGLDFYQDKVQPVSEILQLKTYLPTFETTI
Recombinant human ENPP1 protein, sequence (P22413 whole entry): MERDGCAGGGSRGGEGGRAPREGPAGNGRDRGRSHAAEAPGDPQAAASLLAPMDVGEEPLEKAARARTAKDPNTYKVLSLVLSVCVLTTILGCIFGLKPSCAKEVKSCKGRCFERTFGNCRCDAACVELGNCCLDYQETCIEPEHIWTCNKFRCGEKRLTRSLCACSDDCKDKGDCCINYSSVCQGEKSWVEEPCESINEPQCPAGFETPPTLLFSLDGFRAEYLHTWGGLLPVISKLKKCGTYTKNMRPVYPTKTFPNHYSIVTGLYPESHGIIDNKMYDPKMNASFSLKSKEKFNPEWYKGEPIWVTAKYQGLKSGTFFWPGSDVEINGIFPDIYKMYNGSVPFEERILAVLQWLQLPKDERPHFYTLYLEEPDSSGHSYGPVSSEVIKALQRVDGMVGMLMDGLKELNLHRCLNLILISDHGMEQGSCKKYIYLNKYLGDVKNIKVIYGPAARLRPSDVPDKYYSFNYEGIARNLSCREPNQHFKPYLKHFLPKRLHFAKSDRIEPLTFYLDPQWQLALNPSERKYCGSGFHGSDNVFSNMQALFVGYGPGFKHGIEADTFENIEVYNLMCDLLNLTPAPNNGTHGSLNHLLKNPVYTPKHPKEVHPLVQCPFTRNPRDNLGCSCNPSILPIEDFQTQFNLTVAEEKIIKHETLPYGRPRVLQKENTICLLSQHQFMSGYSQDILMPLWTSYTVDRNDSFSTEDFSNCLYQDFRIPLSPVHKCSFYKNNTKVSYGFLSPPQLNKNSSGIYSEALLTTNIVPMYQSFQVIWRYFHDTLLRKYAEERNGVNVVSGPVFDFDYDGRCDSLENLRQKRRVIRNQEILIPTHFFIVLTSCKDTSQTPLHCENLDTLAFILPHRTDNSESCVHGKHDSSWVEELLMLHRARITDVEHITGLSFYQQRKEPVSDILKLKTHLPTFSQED

| Compound | IC50 [1] [nM] | IC50 [2] [nM] |
| --- | --- | --- |
| CCn1ncc2c(NCc3ccc(S(=N)(N)=O)cc3)ncnc21 (stereo not drawn) [Compound 2D, 4-(((1-ethyl-1H-pyrazolo[3,4-d]pyrimidin-4-yl)amino)methyl)benzenesulfonimidamide] | 10 to 100 | ≥ 1000 |
| C#CCn1nc(Cl)c2c(N(C)Cc3ccc(S(C)(=N)=O)cc3)ccnc21 (stereo not drawn) [Compound 9A, (4-(((3-chloro-1-(prop-2-yn-1-yl)-1H-pyrazolo [3,4-b]pyridin-4-yl)(methyl)amino)methyl)phenyl)(imino)(methyl)-λ^6-sulfanone] | < 10 | 10 to 100 |
| CS(=N)(=O)c1ccc(CNc2ccnc3c2c(Cl)nn3CC#N)cc1 (stereo not drawn) [Compound 9F, 2-(3-chloro-4-((4-(S-methylsulfonimidoyl)benzyl)amino)-1H-pyrazolo[3,4-b]pyridin-1-yl)acetonitrile] | < 10 | 10 to 100 |
| CCn1ncc2c(Nc3ccc(S(N)(=O)=NCC4CC4)cc3)ccnc21 (stereo not drawn) [Compound 5A, N′-(cyclopropylmethyl)-4-((1-ethyl-1H-pyrazolo [3,4-b]pyridin-4-yl)amino) benzenesulfonimidamide] | 10 to 100 | 100 to 1000 |
| CCn1nc(Cl)c2c(NCC3CCN(S(=N)(N)=O)CC3)ccnc21 (stereo not drawn) [Compound 1C, 4-(((3-chloro-1-ethyl-1H-pyrazolo[3,4-b]pyridin-4-yl)amino)methyl)piperidine-1-sulfonimidamide] | 10 to 100 | ≥ 1000 |
| CCn1nc(Cl)c2c(NCc3ccc([S@@](C)(=N)=O)cc3)ccnc21 [Compound 9M, (S)-(4-(((3-chloro-1-ethyl-1H-pyrazolo[3,4-b]pyridin-4-yl)amino)methyl)phenyl)(imino) (methyl)-λ^6-sulfanone] | 10 to 100 | ≥ 1000 |
| CCn1nc(Cl)c2c(NCc3ccc([S@](C)(=N)=O)cc3)ccnc21 [Compound 9L, (R)-(4-(((3-chloro-1-ethyl-1H-pyrazolo[3,4-b]pyridin-4-yl)amino)methyl)phenyl)(imino) (methyl)-λ^6-sulfanone] | < 10 | 100 to 1000 |
| CCn1nc(Cl)c2c(NCc3ccc(S(=N)(=O)CCOC)cc3)ccnc21 (stereo not drawn) [Compound 9I, (4-(((3-chloro-1-ethyl-1H-pyrazolo[3,4-b]pyridin-4-yl)amino)methyl)phenyl)(imino)(2-methoxyethyl)-λ6-sulfanone] | < 10 | 100 to 1000 |
| C#CCn1nc(Cl)c2c(NCc3ccc([S@@](C)(=N)=O)cc3)ccnc21 [Compound 6B, (S)-(4-(((3-chloro-1-(prop-2-yn-1-yl)-1H-pyrazolo[3,4-b]pyridin-4-yl)amino)methyl)phenyl)(imino)(methyl)-λ^6-sulfanone] | < 10 | 10 to 100 |
| C#CCn1nc(Cl)c2c(NCc3ccc(S(=N)(=O)NC)cc3)ccnc21 (stereo in doubt) [Compound 10B, (R)-4-(((3-chloro-1-(prop-2-yn-1-yl)-1H-pyrazolo[3,4-b]pyridin-4-yl)amino)methyl)-N-methylbenzenesulfonimidamide] | < 10 | ≥ 1000 |
| CCn1nc(Cl)c2c(Nc3ccc(S(=N)(N)=O)cc3)ccnc21 (stereo not drawn) [Compound 5C, 4-((3-chloro-1-ethyl-1H-pyrazolo[3,4-b]pyridin-4-yl)amino)benzenesulfonimidamide] | 10 to 100 | 100 to 1000 |
| CCn1nc(Cl)c2c(Nc3ccc(S(N)(=O)=NC)cc3)ccnc21 (stereo not drawn) [Compound 5D, 4-((3-chloro-1-ethyl-1H-pyrazolo[3,4-b]pyridin-4-yl)amino)-N′-methylbenzenesulfonimidamide] | < 10 | 100 to 1000 |
| CCn1nc(Cl)c2c(Nc3ccc(S(N)(=O)=NC#N)cc3)ccnc21 (stereo not drawn) [Compound 5G, 4-((3-chloro-1-ethyl-1H-pyrazolo[3,4-b]pyridin-4-yl)amino)-N′-cyanobenzenesulfonimidamide] | 10 to 100 | ≥ 1000 |
| CCn1ncc2c(NCc3ccc(S(=N)(N)=O)cc3)cc(-c3ncc[nH]3)nc21 (stereo not drawn) [Compound 2C, 4-(((1-ethyl-6-(1H-imidazol-2-yl)-1H-pyrazolo [3,4-b]pyridin-4-yl)amino)methyl)benzene sulfonimidamide] | 100 to 1000 | 100 to 1000 |

More lines, now with the values ahead:

| IC50 [1] [nM] | IC50 [2] [nM] | Compound |
| --- | --- | --- |
| < 10 | 100 to 1000 | C#CCn1nc(Cl)c2c(NCC3CCN(S(=N)(N)=O)CC3)ccnc21 (stereo not drawn) [Compound 15I, 4-(((3-chloro-1-(prop-2-yn-1-yl)-1H-pyrazolo[3,4-b]pyridin-4-yl)amino)methyl)piperidine-1-sulfonimidamide] |
| < 10 | 10 to 100 | C#CCn1nc(Cl)c2c(NCc3ccc(S(=N)(=O)NC)cc3)ccnc21 (stereo in doubt) [Compound 10C, (S)-4-(((3-chloro-1-(prop-2-yn-1-yl)-1H-pyrazolo[3,4-b]pyridin-4-yl)amino)methyl)-N-methylbenzenesulfonimidamide] |
| 10 to 100 | ≥ 1000 | CCn1nc(Cl)c2c(NCC3CCN([S@](C)(=N)=O)CC3)ccnc21 [Compound 13H, (S)-3-chloro-1-ethyl-N-((1-(S-methylsulfonimidoyl)piperidin-4-yl)methyl)-1H-pyrazolo[3,4-b]pyridin-4-amine] |
| < 10 | 10 to 100 | CN=S(N)(=O)N1CCC(CNc2ccnc3c2c(Cl)nn3CC#N)CC1 (stereo not drawn) [Compound 15A, 4-(((3-chloro-1-(cyanomethyl)-1H-pyrazolo[3,4-b]pyridin-4-yl)amino)methyl)-N′-methylpiperidine-1-sulfonimidamide] |
| – | 100 to 1000 | CN=[S@](N)(=O)N1CCC(CNc2ccnc3c2c(Cl)nn3CC#N)CC1 [Compound 15G, (S)-4-(((3-chloro-1-(cyanomethyl)-1H-pyrazolo[3,4-b]pyridin-4-yl)amino)methyl)-N′-methylpiperidine-1-sulfonimidamide] |
| < 10 | ≥ 1000 | C#CCn1nc(Cl)c2c(NCC3CCN([S@@](C)(=N)=O)CC3)ccnc21 [Compound 13C, (R)-3-chloro-N-((1-(S-methylsulfonimidoyl)piperidin-4-yl)methyl)-1-(prop-2-yn-1-yl)-1H-pyrazolo[3,4-b]pyridin-4-amine] |
| < 10 | ≥ 1000 | CCn1nc(Cl)c2c(NCc3ccc(S(=N)(N)=O)cc3)ccnc21 (stereo not drawn) [Compound 11C, 4-(((3-chloro-1-ethyl-1H-pyrazolo[3,4-b]pyridin-4-yl)amino)methyl)benzenesulfonimidamide] |
| < 10 | 10 to 100 | CCn1nc(Cl)c2c(NCc3ccc(S(N)(=O)=NC#N)cc3)ccnc21 (stereo not drawn) [Compound 12F, 4-(((3-chloro-1-ethyl-1H-pyrazolo[3,4-b]pyridine-4-yl)amino)methyl)-N′-cyano benzenesulfonimidamide] |
| – | ≥ 1000 | CCn1ncc2c(NCC3CCN([S@](C)(=N)=O)CC3)ccnc21 [Compound 14H, (S)-1-ethyl-N-((1-(S-methylsulfonimidoyl)piperidin-4-yl)methyl)-1H-pyrazolo[3,4-b]pyridin-4-amine] |
| < 10 | 10 to 100 | C#CCn1nc(Cl)c2c(NCC3CCN([S@](C)(=N)=O)CC3)ccnc21 [Compound 13B, (S)-3-chloro-N-((1-(S-methylsulfonimidoyl)piperidin-4-yl)methyl)-1-(prop-2-yn-1-yl)-1H-pyrazolo[3,4-b]pyridin-4-amine] |
| < 10 | 100 to 1000 | CCn1nc(Cl)c2c(NCC3CCN(S(=N)(=O)CCC(=O)O)CC3)ccnc21 (stereo not drawn) [Compound 14F, 3-(4-(((3-chloro-1-ethyl-1H-pyrazolo[3,4-b]pyridin-4-yl)amino)methyl)piperidine-1-sulfonimidoyl)propanoic acid] |
| 100 to 1000 | ≥ 1000 | CN=S(C)(=O)c1ccc(CNc2ccnc3c2c(Cl)nn3CC#N)cc1 (stereo not drawn) [Compound 10D, 2-(3-chloro-4-((4-(N,S-dimethylsulfonimidoyl)benzyl)amino)-1H-pyrazolo[3,4-b]pyridin-1-yl)acetonitrile] |
| – | ≥ 1000 | CCn1ncc2c(NCC3CCN([S@@](C)(=N)=O)CC3)ccnc21 [Compound 14G, (R)-1-ethyl-N-((1-(S-methylsulfonimidoyl)piperidin-4-yl)methyl)-1H-pyrazolo[3,4-b]pyridine-4-amine] |
